Results reported in ChEMBL document CHEMBL1201862, “PubChem BioAssay data set” (2004).
Active and inactive are the calls of the source.

What was measured:
Beta-lactamase [1] = molecular target: T1, Beta-lactamase (Pseudomonas aeruginosa, UniProt Q79MP6); assay: IMP-1 metallo-beta-lactamase inhibitors, dose response, selectivity assay for VIM-2 inhibitor project, biochemical, epi-absorbance (AID 1920)
Beta-lactamase [2] = molecular target: Beta-lactamase (Salmonella choleraesuis (strain SC-B67), UniProt Q5J463); assay: Epi-absorbance-based counterscreen for selective VIM-2 inhibitors: dose response biochemical high throughput screening assay to identify inhibitors of TEM-1 serine-beta-lactamase.
Beta-lactamase [3] = molecular target: T1, Beta-lactamase; assay: […] counterscreen for selective VIM-2 inhibitors: dose response biochemical high throughput screening assay to identify inhibitors of IMP-1 metallo-beta-lactamase.
[4] = molecular target: Disintegrin and metalloproteinase domain-containing protein 17 (Homo sapiens, UniProt P78536); assay: exosite inhibitors of ADAM17, dose response, biochemical (AID 743260)
[5] = ADAM10 protease inhibitors, dose response, selectivity assay for ADAM17 exosite inhibitor project, biochemical, FRET peptide substrate, recombinant human ADAM10 (AID 743259);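 note: ADAM10 enzyme cleaving a FRET peptide substrate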
[6] = molecular target: T2, Trace amine-associated receptor 1 (Homo sapiens, UniProt Q96RJ0); assay: Counterscreen for antagonists of the human trace amine associated receptor 1 (hTAAR1): Fluorescence-based cell-based high throughput dose response assay to identify TAAR1 Agonists.; assay type: functional
T2 sequence (Q96RJ0 whole entry): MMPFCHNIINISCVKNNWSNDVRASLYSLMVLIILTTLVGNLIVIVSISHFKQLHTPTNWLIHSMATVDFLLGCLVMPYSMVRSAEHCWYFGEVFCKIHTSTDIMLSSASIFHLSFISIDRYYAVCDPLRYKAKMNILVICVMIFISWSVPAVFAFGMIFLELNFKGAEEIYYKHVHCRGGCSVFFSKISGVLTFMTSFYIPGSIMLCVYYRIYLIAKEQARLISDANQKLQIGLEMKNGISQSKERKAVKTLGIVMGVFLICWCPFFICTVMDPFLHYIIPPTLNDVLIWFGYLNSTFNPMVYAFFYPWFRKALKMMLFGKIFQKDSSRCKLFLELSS

[7] = molecular target: T2, Trace amine-associated receptor 1; assay: Fluorescence-based cell-based high throughput dose response assay to identify antagonists of the human trace amine associated receptor 1 (TAAR1).; assay type: functional
[8] = Counterscreen for antagonists of the human trace amine associated receptor 1 (hTAAR1): Fluorescence-based cell-based high throughput dose response assay to identify nonselective Ga16 antagonists.; assay type: functional
[9] = Counterscreen for […] of the human trace amine associated receptor 1 (TAAR1): Fluorescence-based cell-based high throughput dose response assay to identify nonselective Ga16 agonists.; assay type: functional
[10] = molecular target: Matrix metalloproteinase-14 (Homo sapiens, UniProt P50281); assay: Dose Response confirmation of uHTS hits for a small molecule inhibitors of MT1-MMP activation in a fluorescence assay set 1.; assay type: functional
[11] = molecular target: SWI/SNF-related matrix-associated actin-dependent regulator of chromatin subfamily A member 2 (Homo sapiens, UniProt P51531); assay: Luminescence-based cell-based high throughput dose response assay to identify activators of the function of SWI/SNF related, matrix associated, actin dependent regulator of chromatin, subfamily a, member 2 (SMARCA2, BRM).; assay type: functional
[12] = Counterscreen for activators of the function of SWI/SNF related, matrix associated, actin dependent regulator of chromatin, subfamily a, member 2 (SMARCA2, BRM): Luminescence-based cell-based high throughput dose response assay to identify non-selective compounds using the VP16 reporter assay.; assay type: functional
[13] = HeLa cell cytotoxicity, dose response, cytotoxicity control for MgcRacGAP inhibitor project (AID 624300); assay type: functional
[14] = molecular target: T3, Rac GTPase-activating protein 1 (Homo sapiens, UniProt Q9H0H5); assay: MgcRacGAP GTPase-activating activity inhibitors, confirmation, biochemical, ADP Hunter fluorescence, primary and confirmatory (AID 624330); assay type: functional
T3 sequence (Q9H0H5 whole entry): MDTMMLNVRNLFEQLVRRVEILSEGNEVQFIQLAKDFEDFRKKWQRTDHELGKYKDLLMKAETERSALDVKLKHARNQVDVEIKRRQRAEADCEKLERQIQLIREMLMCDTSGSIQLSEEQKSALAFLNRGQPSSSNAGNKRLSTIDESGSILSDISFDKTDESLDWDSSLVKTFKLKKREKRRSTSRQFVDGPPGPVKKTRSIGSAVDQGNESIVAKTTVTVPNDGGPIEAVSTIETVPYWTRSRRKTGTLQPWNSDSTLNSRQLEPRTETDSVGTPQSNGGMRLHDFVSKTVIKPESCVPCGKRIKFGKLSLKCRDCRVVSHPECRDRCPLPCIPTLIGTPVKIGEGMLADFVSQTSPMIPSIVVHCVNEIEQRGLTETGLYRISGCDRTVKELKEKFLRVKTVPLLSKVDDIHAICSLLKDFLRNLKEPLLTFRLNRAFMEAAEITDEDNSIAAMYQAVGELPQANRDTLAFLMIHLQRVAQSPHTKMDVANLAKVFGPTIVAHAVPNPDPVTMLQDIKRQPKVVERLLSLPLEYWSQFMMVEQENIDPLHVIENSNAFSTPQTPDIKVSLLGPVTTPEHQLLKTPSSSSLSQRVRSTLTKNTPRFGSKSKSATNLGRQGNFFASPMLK

T1 sequence (Q79MP6 whole entry): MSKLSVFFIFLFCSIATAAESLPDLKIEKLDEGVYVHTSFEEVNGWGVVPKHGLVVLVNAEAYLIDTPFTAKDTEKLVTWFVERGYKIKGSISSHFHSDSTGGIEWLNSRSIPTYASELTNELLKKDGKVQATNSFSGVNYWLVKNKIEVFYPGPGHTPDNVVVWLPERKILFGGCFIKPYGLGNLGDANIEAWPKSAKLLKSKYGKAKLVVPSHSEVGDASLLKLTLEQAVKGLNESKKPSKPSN
Sequence of Disintegrin and metalloproteinase domain-containing protein 17 (P78536 whole entry, the tested form may be a part): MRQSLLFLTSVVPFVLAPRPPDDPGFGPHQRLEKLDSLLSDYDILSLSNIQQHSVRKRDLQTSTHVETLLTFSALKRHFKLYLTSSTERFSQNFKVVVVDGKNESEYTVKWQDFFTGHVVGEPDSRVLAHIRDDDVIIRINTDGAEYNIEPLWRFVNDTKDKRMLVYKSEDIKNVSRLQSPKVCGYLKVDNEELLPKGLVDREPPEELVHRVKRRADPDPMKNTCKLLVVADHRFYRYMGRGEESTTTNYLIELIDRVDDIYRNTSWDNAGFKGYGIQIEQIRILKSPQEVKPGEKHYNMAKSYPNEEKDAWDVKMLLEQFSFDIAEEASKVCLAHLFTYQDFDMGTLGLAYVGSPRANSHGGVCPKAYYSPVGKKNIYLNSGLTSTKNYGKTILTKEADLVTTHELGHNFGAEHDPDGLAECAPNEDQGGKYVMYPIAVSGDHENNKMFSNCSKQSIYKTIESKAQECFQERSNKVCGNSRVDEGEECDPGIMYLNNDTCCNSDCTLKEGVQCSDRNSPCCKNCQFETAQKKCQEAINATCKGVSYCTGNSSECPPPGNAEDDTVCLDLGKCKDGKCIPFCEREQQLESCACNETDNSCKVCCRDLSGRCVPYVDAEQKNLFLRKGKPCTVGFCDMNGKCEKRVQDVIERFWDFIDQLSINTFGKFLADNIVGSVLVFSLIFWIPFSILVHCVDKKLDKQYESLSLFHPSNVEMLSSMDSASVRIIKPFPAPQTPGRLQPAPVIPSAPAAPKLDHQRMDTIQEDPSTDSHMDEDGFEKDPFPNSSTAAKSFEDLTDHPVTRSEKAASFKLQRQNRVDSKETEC
Sequence of Beta-lactamase (Salmonella choleraesuis (strain SC-B67), UniProt Q5J463) (Q5J463 whole entry): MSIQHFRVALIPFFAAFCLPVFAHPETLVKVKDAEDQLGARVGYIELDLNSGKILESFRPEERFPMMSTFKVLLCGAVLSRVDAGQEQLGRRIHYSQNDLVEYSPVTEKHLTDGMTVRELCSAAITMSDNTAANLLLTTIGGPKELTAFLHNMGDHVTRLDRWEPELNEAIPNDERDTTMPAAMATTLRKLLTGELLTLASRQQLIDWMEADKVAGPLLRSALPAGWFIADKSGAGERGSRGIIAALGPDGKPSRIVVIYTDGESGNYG
Sequence of SWI/SNF-related matrix-associated actin-dependent regulator of chromatin subfamily A member 2 (P51531 whole entry): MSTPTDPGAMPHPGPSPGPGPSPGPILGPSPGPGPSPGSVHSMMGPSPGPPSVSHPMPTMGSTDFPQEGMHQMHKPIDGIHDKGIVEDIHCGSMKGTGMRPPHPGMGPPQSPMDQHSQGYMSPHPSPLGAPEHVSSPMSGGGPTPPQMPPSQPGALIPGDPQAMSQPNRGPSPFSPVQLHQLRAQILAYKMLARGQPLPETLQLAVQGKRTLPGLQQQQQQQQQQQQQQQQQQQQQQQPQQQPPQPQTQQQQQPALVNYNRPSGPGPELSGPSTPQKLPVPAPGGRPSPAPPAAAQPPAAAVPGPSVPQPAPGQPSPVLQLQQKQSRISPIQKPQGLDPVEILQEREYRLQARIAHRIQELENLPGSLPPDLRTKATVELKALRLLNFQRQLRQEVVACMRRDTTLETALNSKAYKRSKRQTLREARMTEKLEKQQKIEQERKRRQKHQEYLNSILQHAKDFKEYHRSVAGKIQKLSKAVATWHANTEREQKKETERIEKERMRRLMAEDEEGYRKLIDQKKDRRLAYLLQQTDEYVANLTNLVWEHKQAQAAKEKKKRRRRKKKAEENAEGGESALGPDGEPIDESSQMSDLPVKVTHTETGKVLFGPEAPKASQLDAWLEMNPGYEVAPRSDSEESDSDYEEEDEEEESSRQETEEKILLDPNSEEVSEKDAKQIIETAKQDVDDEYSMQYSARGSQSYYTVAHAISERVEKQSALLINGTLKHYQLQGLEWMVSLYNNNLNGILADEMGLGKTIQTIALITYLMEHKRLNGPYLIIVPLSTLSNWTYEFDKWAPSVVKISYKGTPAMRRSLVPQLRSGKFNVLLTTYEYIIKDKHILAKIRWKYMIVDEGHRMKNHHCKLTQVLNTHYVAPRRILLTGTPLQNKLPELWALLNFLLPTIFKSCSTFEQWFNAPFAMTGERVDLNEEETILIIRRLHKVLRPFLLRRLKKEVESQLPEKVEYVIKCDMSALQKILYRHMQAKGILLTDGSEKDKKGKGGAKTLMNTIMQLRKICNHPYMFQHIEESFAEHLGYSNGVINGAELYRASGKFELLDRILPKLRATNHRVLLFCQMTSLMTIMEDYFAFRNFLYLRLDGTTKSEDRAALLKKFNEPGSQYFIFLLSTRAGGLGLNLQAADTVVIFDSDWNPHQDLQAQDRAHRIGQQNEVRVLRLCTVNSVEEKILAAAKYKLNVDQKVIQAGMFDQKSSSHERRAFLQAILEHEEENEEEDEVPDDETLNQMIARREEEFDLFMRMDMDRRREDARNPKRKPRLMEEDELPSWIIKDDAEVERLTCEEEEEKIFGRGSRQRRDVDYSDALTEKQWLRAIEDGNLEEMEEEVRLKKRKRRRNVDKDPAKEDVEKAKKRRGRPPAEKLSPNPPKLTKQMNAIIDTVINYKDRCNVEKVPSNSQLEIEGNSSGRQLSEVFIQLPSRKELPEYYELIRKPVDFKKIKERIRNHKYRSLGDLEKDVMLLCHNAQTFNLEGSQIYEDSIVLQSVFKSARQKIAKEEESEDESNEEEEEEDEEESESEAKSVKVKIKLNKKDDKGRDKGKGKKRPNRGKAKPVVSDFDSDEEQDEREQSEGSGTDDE

## COCC(C)NC(=O)c1cc2cccc([N+](=O)[O-])c2[nH]1 (centres undefined)
Beta-lactamase [1]
  IC50: > 59.6 µM (inactive)
Beta-lactamase [2]
  IC50: > 59.6 µM (inactive)
Beta-lactamase [3]
  IC50: > 59.6 µM (inactive)

## CCSc1nsc(NC(=O)Nc2cccc(OC)c2)n1
[4]
  IC50: > 69.5 µM (inactive)
[5]
  IC50: > 69.5 µM (inactive)

## CN1CCN(c2ncnc3c2c(-c2ccccc2)cn3-c2ccc(F)cc2)CC1
[6]
  EC50: 10 µM (inactive)
[7]
  IC50: 3.17 µM (active)
[8]
  IC50: > 29.9 µM (inactive)
[9]
  EC50: > 29.9 µM (inactive)

## Cc1cccc[n+]1CC(=O)/C=C1\N(C)c2ccccc2C1(C)C
[10]
  IC50: 24.1 µM (inactive)

## COc1ccc(-c2nnc(-c3ccc(N(C)C)cc3)o2)cc1
[11]
  EC50: > 91.2 µM (inactive)
[12]
  EC50: > 91.2 µM (inactive)

## Nc1nc(S)c2[nH]c(S)nc2n1
[13]
  CC50: 100 µM (active)
[14]
  IC50: 112 µM (active)
